Measurements as given in PMC6124754, “Characterization of new, efficient Mycobacterium tuberculosis topoisomerase-I inhibitors and their interaction with human ABC multidrug transporters” (PLoS ONE, 2018).
Values after ≈ are worked out from the molar mass of the structure shown. “Also recorded” adds a separate entry of the source. Read-outs that look alike come from different tables or passages of the source.

Tests used:
HFF cell line = assay: Cytotoxicity, PrestoBlue 72 h, HFF; assay type: cell-based, human; conditions: Non-toxic = not toxic up to 20 μM, read-out: Toxicity in HFF cell line, IC50
Experimental: (§1) The toxic effects of the selected MtTopo-I inhibitory Vichem compounds were tested in three cell lines, HFF (human foreskin fibroblast), HEK293 (human embryonic kidney) and A431 (human epidermoid carcinoma) cell lines, obtained from ATCC. Establishment of ABC transporter-expressing A431cell lines was achieved by retroviral transduction of the cells as described previously.
(§2) For cytotoxicity measurements the cells were seeded in a 96-well culture plate at 5,000 cells/well (A431, HEK293) or 6000 cells/well (HFF) and incubated overnight. […] After 72 hours of incubation viability was assessed by PrestoBlue® assay (Invitrogen). IC50 values were obtained by sigmoidal curve fitting in the GraphPad Prism software. All experiments were performed in triplicates and repeated at least in three independent experiments. DMSO, used as solvent of the compounds, had no effect on viability at the applied concentration.

human ABCB1 [1] = molecular target: T1, human ABCB1 (Homo sapiens, UniProt P08183); assay: Cellular transport assay, Calcein-AM uptake in ABCB1-overexpressing PLB cells; assay type: cell-based; conditions: S6 summary table; further: key: 0: no observed effect; +: effect observed in the assay; In the ATPase assay showing only inhibition, the - sign is applied
T1 sequence (P08183 whole entry): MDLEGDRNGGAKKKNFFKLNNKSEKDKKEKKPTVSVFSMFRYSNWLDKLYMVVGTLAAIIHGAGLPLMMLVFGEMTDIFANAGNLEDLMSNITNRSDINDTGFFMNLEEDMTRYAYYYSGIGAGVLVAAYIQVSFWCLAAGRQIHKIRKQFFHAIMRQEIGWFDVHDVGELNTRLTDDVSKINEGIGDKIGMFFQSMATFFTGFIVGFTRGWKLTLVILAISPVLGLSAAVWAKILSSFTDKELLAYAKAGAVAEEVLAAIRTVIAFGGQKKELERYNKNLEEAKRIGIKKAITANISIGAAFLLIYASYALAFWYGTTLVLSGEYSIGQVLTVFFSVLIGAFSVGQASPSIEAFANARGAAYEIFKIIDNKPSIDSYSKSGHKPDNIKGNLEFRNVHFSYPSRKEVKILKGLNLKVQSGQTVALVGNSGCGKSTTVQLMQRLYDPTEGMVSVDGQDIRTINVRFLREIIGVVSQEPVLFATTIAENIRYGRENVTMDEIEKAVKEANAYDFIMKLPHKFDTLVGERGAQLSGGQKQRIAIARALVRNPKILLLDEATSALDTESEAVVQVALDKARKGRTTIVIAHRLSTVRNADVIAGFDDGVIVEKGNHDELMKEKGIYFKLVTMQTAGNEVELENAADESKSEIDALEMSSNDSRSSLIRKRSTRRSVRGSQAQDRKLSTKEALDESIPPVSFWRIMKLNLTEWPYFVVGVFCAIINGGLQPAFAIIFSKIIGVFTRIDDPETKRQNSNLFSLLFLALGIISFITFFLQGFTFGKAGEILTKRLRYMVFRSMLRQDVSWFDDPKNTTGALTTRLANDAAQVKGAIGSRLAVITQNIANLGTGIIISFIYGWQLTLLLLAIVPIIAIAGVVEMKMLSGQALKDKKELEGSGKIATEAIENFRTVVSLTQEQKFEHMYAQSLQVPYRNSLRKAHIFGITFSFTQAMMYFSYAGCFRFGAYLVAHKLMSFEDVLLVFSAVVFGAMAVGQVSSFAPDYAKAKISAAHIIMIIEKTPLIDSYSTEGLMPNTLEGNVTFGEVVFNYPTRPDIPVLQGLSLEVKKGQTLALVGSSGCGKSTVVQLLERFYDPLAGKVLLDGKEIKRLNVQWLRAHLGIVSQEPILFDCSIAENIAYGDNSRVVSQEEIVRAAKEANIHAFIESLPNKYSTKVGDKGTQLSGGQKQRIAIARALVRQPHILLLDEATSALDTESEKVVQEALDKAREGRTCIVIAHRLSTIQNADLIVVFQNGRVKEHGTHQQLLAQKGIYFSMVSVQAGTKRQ
Experimental: (§3) For cellular transport assays, mammalian PLB (lymphoblastoid) cell lines, overexpressing ABCB1 or ABCG2 were used. The parental PLB cell line was purchased from ATCC, and ABCB1 or ABCG2 overexpressing cell lines were established by using lentiviral vectors for human ABC transporters as described earlier in [29]. The transport assays were carried out in 96-well plates. 1x10^5 cells were incubated in the presence of 0.1 μM Calcein-AM or 1 μM DCV (Dye Cycler Violet) for the ABCB1 and for the ABCG2 assays, respectively. The assay was performed in HPMI medium (NaCl 120 mM, KCl 5 mM, MgCl2 0.4 mM, CaCl2 0.04 mM, HEPES 10 mM, NaHCO3 10 mM, glucose 10 mM, Na2HPO4 5 mM; pH 7.4). Fluorescence of the cells was detected using a Victor X3 plate reader (for Calcein, exc. at 485 nm, em. at 535 nm) or the Enspire 2300 (Perkin Elmer) plate reader (for DCV, exc. at 360 nm, em. at 440 nm). Kinetics of fluorescence intensity changes were analyzed to determine relative inhibition, compared to that of a reference agent, providing full inhibition of the ABC transporter. Two of the Vichem compounds examined (VCC979812 and VCC38977) were not compatible with the DCV uptake assay because of their intrinsic fluorescence, therefore for these two compounds ABCG2 transport inhibition was characterized by following mitoxantrone uptake. Mitoxantrone uptake was measured by flow cytometry (BD FACSCanto at 633 nm) by 20 minutes incubation in the presence of 7.5 μM mitoxantrone. Each compound was measured in at least three independent experiments with three parallels in each case. DMSO, used as a solvent of compounds had no effect in this assay at the applied concentration.

H37Rv Mtb strain = assay: H37Rv growth inhibition, resazurin reduction microplate assay (REMA); assay type: cell-based, Mycobacterium tuberculosis; conditions: for MIC90: Mycobacterium tuberculosis, H37RV, read-out: MIC90 of compounds in H37Rv growth test; for Toxicity in H37Rv assay (summary): S6 summary table; for Growth inhibition of H37Rv mycobacteria (in words): tested up to 20 μM
human ABCG2 [2] = molecular target: T2, human ABCG2 (Homo sapiens, UniProt Q9UNQ0); assay: Cellular transport assay, DCV or mitoxantrone uptake in ABCG2-overexpressing PLB cells; assay type: cell-based; design: expressed in transfected cells; host or cells: PLB (human lymphoblastoid) cells, lentiviral transduction; conditions: S6 summary table; further: key: 0: no observed effect; +: effect observed in the assay; In the ATPase assay showing only inhibition, the - sign is applied
T2 sequence (Q9UNQ0 1-655): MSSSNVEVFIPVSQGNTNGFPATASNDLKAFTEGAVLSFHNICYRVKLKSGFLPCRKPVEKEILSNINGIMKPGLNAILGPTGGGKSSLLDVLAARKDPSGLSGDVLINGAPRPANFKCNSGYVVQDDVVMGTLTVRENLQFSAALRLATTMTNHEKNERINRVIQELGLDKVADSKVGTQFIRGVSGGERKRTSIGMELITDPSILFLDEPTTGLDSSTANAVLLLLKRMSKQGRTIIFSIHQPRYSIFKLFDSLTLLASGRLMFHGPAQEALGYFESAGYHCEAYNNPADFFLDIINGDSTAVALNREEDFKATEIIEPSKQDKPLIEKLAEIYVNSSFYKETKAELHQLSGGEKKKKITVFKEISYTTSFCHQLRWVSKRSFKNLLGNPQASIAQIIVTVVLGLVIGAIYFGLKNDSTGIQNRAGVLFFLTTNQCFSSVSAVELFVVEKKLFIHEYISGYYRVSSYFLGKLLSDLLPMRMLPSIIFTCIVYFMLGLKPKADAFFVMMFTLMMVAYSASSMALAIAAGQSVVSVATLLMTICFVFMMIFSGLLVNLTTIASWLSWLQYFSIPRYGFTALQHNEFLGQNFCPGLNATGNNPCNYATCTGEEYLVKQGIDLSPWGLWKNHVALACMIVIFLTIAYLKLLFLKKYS
Experimental: as §3

[3] = tested on: HFF, HEK293 and A431 cell lines; assay type: cell-based, human
Experimental: as §1, §2

MtTopo-I = molecular target: T3, MtTopo-I (Mycobacterium tuberculosis, UniProt P9WG49); assay: DNA relaxation assay of supercoiled pUC18 DNA by MtTopo-I; assay type: biochemical; conditions: minimum concentration providing complete inhibition
T3 construct: made in house; host or cells: E. coli
T3 sequence (P9WG49 whole entry): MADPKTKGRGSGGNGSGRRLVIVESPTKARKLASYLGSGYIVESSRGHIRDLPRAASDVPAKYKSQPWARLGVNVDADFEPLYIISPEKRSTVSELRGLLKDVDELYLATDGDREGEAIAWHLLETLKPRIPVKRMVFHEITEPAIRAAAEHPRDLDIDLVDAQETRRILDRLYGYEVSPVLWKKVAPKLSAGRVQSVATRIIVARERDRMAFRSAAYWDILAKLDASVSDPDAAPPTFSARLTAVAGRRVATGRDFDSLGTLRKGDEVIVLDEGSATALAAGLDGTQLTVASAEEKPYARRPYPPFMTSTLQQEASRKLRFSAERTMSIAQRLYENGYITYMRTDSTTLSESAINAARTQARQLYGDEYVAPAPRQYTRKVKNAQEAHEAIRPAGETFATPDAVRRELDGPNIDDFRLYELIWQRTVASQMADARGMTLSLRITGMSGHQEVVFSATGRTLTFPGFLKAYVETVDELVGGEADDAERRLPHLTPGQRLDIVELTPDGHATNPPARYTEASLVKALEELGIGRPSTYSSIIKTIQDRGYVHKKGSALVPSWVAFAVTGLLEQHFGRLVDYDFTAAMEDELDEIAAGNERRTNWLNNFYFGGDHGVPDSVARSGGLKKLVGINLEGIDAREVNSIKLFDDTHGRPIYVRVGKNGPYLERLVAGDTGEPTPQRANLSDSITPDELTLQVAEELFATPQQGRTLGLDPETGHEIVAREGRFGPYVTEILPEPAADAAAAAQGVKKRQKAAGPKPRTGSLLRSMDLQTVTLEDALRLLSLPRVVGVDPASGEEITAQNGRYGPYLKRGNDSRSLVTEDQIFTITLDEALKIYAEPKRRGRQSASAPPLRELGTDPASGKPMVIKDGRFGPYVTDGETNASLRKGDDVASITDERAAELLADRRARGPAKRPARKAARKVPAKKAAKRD

[4] = tested on: ABCG2-overexpressing A431 cell line; conditions: 72 h; for Resistance modulation by ABCG2 (fold increase in IC50): ABCG2-expressing versus parental A431 cells; for ABC transporter modified cytotoxicity, ABCG2 (summary): human
human ABCG2 [5] = molecular target: T2, human ABCG2; assay: Vanadate-sensitive ATPase activity assay in Sf9 membrane vesicles, ABCG2; assay type: biochemical; design: made in house; host or cells: Sf9 insect cells (baculovirus), membrane vesicles; ABCG2 ATPase, concentration at Vmax: unit not given here; conditions: for ABC transporter ATPase assay, ABCG2 (summary): S6 summary table; for ABCG2 ATPase Vmax: vanadate-sensitive ATPase, from dose-response curves, basal 22±1.4; for ABCG2 ATPase, concentration at Vmax: concentration at which Vmax was seen
parental A431 cell line = assay: Cytotoxicity, PrestoBlue 72 h, parental A431; assay type: cell-based, human; conditions: Non-toxic = not toxic up to 20 μM, read-out: Toxicity in parental A431 cell line, IC50
Experimental: as §1, §2

HEK293 cell line = assay: Cytotoxicity, PrestoBlue 72 h, HEK293; assay type: cell-based, human; conditions: for IC50: Homo sapiens, HEK293, Non-toxic = not toxic up to 20 μM, read-out: Toxicity in HEK293 cell line, IC50
Experimental: as §1, §2

human ABCB1 [6] = molecular target: T1, human ABCB1; assay: Vanadate-sensitive ATPase activity assay in Sf9 membrane vesicles, ABCB1; assay type: biochemical; design: made in house; host or cells: Sf9 insect cells (baculovirus), membrane vesicles; ABCB1 ATPase Vmax: unit not given here; conditions: for Effect on ABCB1-ATPase activity (in words): Sf9 membrane vesicles, 0.1–10 μM for the stimulation in b53; for ABCB1 ATPase Vmax: vanadate-sensitive ATPase, from dose-response curves, basal 5.7±0.7; for ABC transporter ATPase assay, ABCB1 (summary): S6 summary table; for ABCB1 ATPase, concentration at Vmax: concentration at which Vmax was seen; on ABC transporter ATPase assay, ABCB1 (summary): key: 0: no observed effect; +: effect observed in the assay; In the ATPase assay showing only inhibition, the - sign is applied
[7] = tested on: ABCB1-overexpressing A431 cell line; conditions: 72 h; for Resistance modulation by ABCB1 (fold increase in IC50): ABCB1-expressing versus parental A431 cells; for ABC transporter modified cytotoxicity, ABCB1 (summary): human
[8] = minimum concentration providing 90% growth inhibition, 20 to 0.04 μM, N.I. = no inhibition observed up to 20 μM

SMILES	IC50 (HFF cell line; Homo sapiens, HFF) [µM]	IC50 (HFF cell line) [µM]	ABC transporter transport assay, ABCB1 (summary) (human ABCB1 [1])	MIC90 (H37Rv Mtb strain; [8]) [µM]	Toxicity in H37Rv assay (summary) (H37Rv Mtb strain)	Growth inhibition of H37Rv mycobacteria (in words) (H37Rv Mtb strain)	ABC transporter transport assay, ABCG2 (summary) (human ABCG2 [2])	Toxicity in human cell lines (in words) [3]	Toxicity in mammalian cell lines (summary) [3]	Complete inhibition of MtTopoI (MtTopo-I) [µM]	Resistance modulation by ABCG2 (fold increase in IC50) [4]	ABC transporter modified cytotoxicity, ABCG2 (summary) [4]	ABC transporter ATPase assay, ABCG2 (summary) (human ABCG2 [5])	ABCG2 ATPase Vmax (human ABCG2 [5])	IC50 (parental A431 cell line; Homo sapiens, A-431, 72 h) [µM]	IC50 (parental A431 cell line) [µM]	IC50 (HEK293 cell line) [µM]	Effect on ABCB1-ATPase activity (in words) (human ABCB1 [6])	ABCB1 ATPase Vmax (human ABCB1 [6])	ABC transporter modified cytotoxicity, ABCB1 (summary) [7]	other results
CN(C)CCCNc1nc(/C=C/c2ccc(Cl)cc2)nc2cc3ccccc3cc12 [VCC450822]	< 5	2.5 to 5	0	5.1 (≈ 2.13 µg/mL)	+	effectively inhibited the growth	0	toxic	+	10.0	1.0±0.03	0	0	23.3±2	< 5	3.5	10 to 20	well measurable stimulatory effect; also recorded: slight stimulation of the ABCB1-ATPase activity at lower concentrations; also recorded: strongly inhibited ATPase activity at higher concentrations; also recorded: slightly increased	10.5±1.5	0	Resistance modulation by ABCG2 (fold increase in IC50) ([4]; listed as VCC480522): no difference; Resistance modulation by ABCB1 (fold increase in IC50) [7]: 0.97±0.05; Resistance modulation by ABCB1 (fold increase in IC50) ([7]; listed as VCC480522): no difference
COc1ccc(/C=C/c2nc(NCCCN3CCOCC3)c3cc4ccccc4cc3n2)cc1 [VCC478498]	< 5	2.5 to 5	+	0.6 (≈ 0.273 µg/mL)	+	effectively inhibited the growth	+	toxic	+	10 to 25		0	-	21.5±2.4	< 5	3.03	10 to 20		7.2±1.8	0	Effect on ABCG2-ATPase activity (in words) (human ABCG2 [5]; Sf9 membrane vesicles, 0.1–10 μM for stimulation, 50 μM for inhibition): only an inhibition; ABCG2 ATPase, concentration at Vmax (human ABCG2 [5]): 2; ABC transporter ATPase assay, ABCB1 (summary) (human ABCB1 [6]): 0; ABCB1 ATPase, concentration at Vmax (human ABCB1 [6]): 6.25 µM
CC(C)CCNc1nc2cc3ccccc3cc2nc1NCCC(C)C [VCC979812]	20		+		0		+			10	1±0.1	0	0	22±3	19			well measurable stimulatory effect; also recorded: slightly increased	15.8±2	0	MIC90 of compounds in H37Rv growth test (H37Rv Mtb strain; [8]): N.I.; Toxicity in mammalian cell lines (summary) ([3]; human, 72 h): 0/slight; ABCG2 ATPase, concentration at Vmax (human ABCG2 [5]): 0.4; Toxicity in HEK293 cell line, IC50 (HEK293 cell line; Non-toxic = not toxic up to 20 μM): Non-toxic; ABC transporter ATPase assay, ABCB1 (summary) (human ABCB1 [6]): +; ABCB1 ATPase, concentration at Vmax (human ABCB1 [6]): 12.5 µM; Resistance modulation by ABCB1 (fold increase in IC50) [7]: 1.1±0.08
